Drawing on patent EP4640688A1, “AVERMECTIN DERIVATIVE” (Meiji Seika Pharma Co., Ltd., priority 2022, dated 2024), this text covers IC50 for 2 compounds.

The experiment deals with SARS-CoV-2. The class given is cell-based. As to conditions: concentration reducing replication to 50% vs control, read-out: Antiviral activity.

Some results are limits rather than exact numbers.

Take `CCC(C)C1OC2(CCC1C)CC1CC(CC=C(C)C(OC3CC(OC)C(OC4CC(OC)C(O)C(C)O4)C(C)O3)C(C)C=CC=C3COC4C(=NO)C(C)CC(C(=O)O1)C34O)O2` (centres unmarked) [Compound I-1]: the IC50 is under 1000 nM. In the case of `CCC(C)C1OC2(CCC1C)CC1CC(CC=C(C)C(OC3CC(OC)C(OC4CC(OC)C(O)C(C)O4)C(C)O3)C(C)C=CC=C3COC4C(=NOCC(=O)NC)C(C)=CC(C(=O)O1)C34O)O2` (centres unmarked) [Compound I-124], the IC50 is under 1000 nM.
